Assay results as given in ChEMBL document CHEMBL1129835, “Selective cytotoxicity of certain 9-substituted ellipticines for leukemia cells in a variety of leukemia cell cultures” (1997).

Key:
Assay type in all cases: functional
HCT-116 [1] = test: The compound was evaluated for cytotoxicity against HCT116 colon cancer cell line; settings: Homo sapiens
COLO 205 = test: Cytotoxicity exhibited by the compound for total growth inhibition of colon cancer COLO 205 cell line; settings: Homo sapiens
NCI-H522 [2] = test: Concentration for 50% cell kill against non-small cell lung cancer NCI-H522 cell line was determined; settings: Homo sapiens, read-out: LC50 (the source's name)
IGROV-1 [3] = test: Cytotoxicity exhibited by the compound for total growth inhibition of ovarian cancer IGROV 1 cell line; settings: Homo sapiens
RPMI-8226 [4] = test: Concentration for 50% cell kill against leukemia RPMI-8226 cell line was determined; settings: Homo sapiens, read-out: LC50 (the source's name)
SN12C = test: Cytotoxicity exhibited by the compound for total growth inhibition of renal cancer SN12C cell line; settings: Homo sapiens
MDA-N [5] = test: Cytotoxicity exhibited by the compound for total growth inhibition of breast cancer MDA-N cell line; settings: Homo sapiens
HL-60 = test: Effective dose to show cytotoxicity against leukemia HL-60 (TB) cell line was determined; settings: Homo sapiens, read-out: ED50 (the source's name)
Malme-3M [6] = test: Concentration for 50% cell kill against melanoma MALME-3M cell line was determined; settings: Homo sapiens, read-out: LC50 (the source's name)
K562 [7] = test: Cytotoxicity exhibited by the compound for total growth inhibition of leukemia K-562 cell line; settings: Homo sapiens
PC-3 [8] = test: Cytotoxicity exhibited by the compound for total growth inhibition of prostate cancer PC-3 cell line; settings: Homo sapiens
T47D = test: Effective dose to show cytotoxicity against breast cancer T-47D cell line was determined; settings: Homo sapiens, read-out: ED50 (the source's name)
MOLT-4 [9] = test: Cytotoxicity exhibited by the compound for total growth inhibition of leukemia MOLT-4 cell line; settings: Homo sapiens
DU-145 [10] = test: Cytotoxicity exhibited by the compound for total growth inhibition of prostate cancer DU-145 cell line; settings: Homo sapiens
MDA-N [11] = test: Concentration for 50% cell kill against breast cancer MDA-N cell line was determined; settings: Homo sapiens, read-out: LC50 (the source's name)
RXF 393 [12] = test: Effective dose to show cytotoxicity against renal cancer RXF 393 cell line was determined; settings: Homo sapiens, read-out: ED50 (the source's name)
CCRF-CEM = test: Cytotoxicity exhibited by the compound for total growth inhibition of leukemia CCRF-CEM cell line; settings: Homo sapiens
MOLT-4 [13] = test: Effective dose to show cytotoxicity against leukemia MOLT-4 cell line was determined; settings: Homo sapiens, read-out: ED50 (the source's name)
U-251 = test: The compound was evaluated for cytotoxicity against U251 CNS cancer cell line; settings: Homo sapiens
MOLT-4 [14] = test: The compound was evaluated for cytotoxicity against MOLT-4 leukemia cell line; settings: Homo sapiens
NCI-H322M [15] = test: The compound was evaluated for cytotoxicity against NCI-H322M non-small cell lung cancer cell line; settings: Homo sapiens
M14 [16] = test: Concentration for 50% cell kill against melanoma M14 cell line was determined; settings: Homo sapiens, read-out: LC50 (the source's name)
OVCAR-3 = test: Concentration for 50% cell kill against ovarian cancerOVCAR-3 cell line was determined; settings: Homo sapiens, read-out: LC50 (the source's name)
HCT-116 [17] = test: Concentration for 50% cell kill against colon cancer HCT116 cell line was determined; settings: Homo sapiens, read-out: LC50 (the source's name)
LOX IMVI [18] = test: Cytotoxicity exhibited by the compound for total growth inhibition of melanoma LOX IMVI cell line; settings: Homo sapiens
NCI-H322M [19] = test: Cytotoxicity exhibited by the compound for total growth inhibition of non-small cell lung cancer NCI-H322M cell line; settings: Homo sapiens
LOX IMVI [20] = test: Concentration for 50% cell kill against melanoma LOX IMVI cell line was determined; settings: Homo sapiens, read-out: LC50 (the source's name)
IGROV-1 [21] = test: Effective dose to show cytotoxicity against ovarian cancer IGROV 1 cell line was determined; settings: Homo sapiens, read-out: ED50 (the source's name)
DU-145 [22] = test: Concentration for 50% cell kill against prostate cancerDU-145 cell line was determined; settings: Homo sapiens, read-out: LC50 (the source's name)
MDA-N [23] = test: The compound was evaluated for cytotoxicity against MDA-N breast cancer cell line; settings: Homo sapiens
SNB-75 = test: Cytotoxicity exhibited by the compound for total growth inhibition of CNS cancer SNB-75 cell line; settings: Homo sapiens
KM12 = test: Concentration for 50% cell kill against colon cancer KM-12 cell line was determined; settings: Homo sapiens, read-out: LC50 (the source's name)
SNB-19 [24] = test: Effective dose to show cytotoxicity against CNS cancer SNB-19 cell line was determined; settings: Homo sapiens, read-out: ED50 (the source's name)
SNB-19 [25] = test: Concentration for 50% cell kill against CNS cancer SNB-19 cell line was determined; settings: Homo sapiens, read-out: LC50 (the source's name)
DU-145 [26] = test: Effective dose to show cytotoxicity against prostate cancer DU-145 cell line was determined; settings: Homo sapiens, read-out: ED50 (the source's name)
RPMI-8226 [27] = test: Effective dose to show cytotoxicity against leukemia RPMI-8226 cell line was determined; settings: Homo sapiens, read-out: ED50 (the source's name)
NCI-H522 [28] = test: Cytotoxicity exhibited by the compound for total growth inhibition of non-small cell lung cancer NCI-H522 cell line; settings: Homo sapiens
OVCAR-8 = test: Concentration for 50% cell kill against ovarian cancerOVCAR-8 cell line was determined; settings: Homo sapiens, read-out: LC50 (the source's name)
K562 [29] = test: Concentration for 50% cell kill against leukemia K-562 cell line was determined; settings: Homo sapiens, read-out: LC50 (the source's name)
Malme-3M [30] = test: Cytotoxicity exhibited by the compound for total growth inhibition of melanoma MALME-3M cell line; settings: Homo sapiens
M14 [31] = test: Effective dose to show cytotoxicity against melanoma M14 cell line was determined; settings: Homo sapiens, read-out: ED50 (the source's name)
MDA-MB-453 = test: Concentration for 50% cell kill against breast cancer MDA-MB-435 cell line was determined; settings: Homo sapiens, read-out: LC50 (the source's name)
NCI-H322M [32] = test: Concentration for 50% cell kill against non-small cell lung cancer NCI-H322M cell line was determined; settings: Homo sapiens, read-out: LC50 (the source's name)
PC-3 [33] = test: Concentration for 50% cell kill against prostate cancerPC-3 cell line was determined; settings: Homo sapiens, read-out: LC50 (the source's name)
IGROV-1 [34] = test: The compound was evaluated for cytotoxicity against IGROV1 ovarian cancer cell line; settings: Homo sapiens
CAKI-1 = test: Effective dose to show cytotoxicity against renal cancerCAKI-1 cell line was determined; settings: Homo sapiens, read-out: ED50 (the source's name)
RXF 393 [35] = test: Concentration for 50% cell kill against renal cancer RXF 393 cell line was determined; settings: Homo sapiens, read-out: LC50 (the source's name)

`Cc1c2ccncc2c(C)c2c1[nH]c1ccc(CO)cc12` showed a GI50 (HCT-116 [1]) of 50 nM, a TGI (COLO 205) of 2200 nM and a CC50 (NCI-H522 [2]) greater than 100000 nM. It also gave a TGI (IGROV-1 [3]) of 11700 nM, a CC50 (RPMI-8226 [4]) of 5570 nM and a TGI (SN12C) of 3470 nM. For the same molecule, the TGI (MDA-N [5]) was 1690 nM, the EC50 (HL-60) was 20 nM and the CC50 (Malme-3M [6]) was 820 nM. For the same molecule, the TGI (K562 [7]) was 110 nM, the TGI (PC-3 [8]) was 3600 nM and the EC50 (T47D) was 1420 nM. It also gave a TGI (MOLT-4 [9]) of 40 nM, a TGI (DU-145 [10]) of 11900 nM and a CC50 (MDA-N [11]) of 4330 nM. For the same molecule, the EC50 (RXF 393 [12]) was 1610 nM, the TGI (CCRF-CEM) was 1010 nM and the EC50 (MOLT-4 [13]) was 10 nM. It also gave a GI50 (U-251) of 280 nM, a GI50 (MOLT-4 [14]) of 10 nM and a GI50 (NCI-H322M [15]) of 620 nM. The CC50 (M14 [16]) was 34100 nM, the CC50 (OVCAR-3) was 46200 nM and the CC50 (HCT-116 [17]) was greater than 100000 nM. The TGI (LOX IMVI [18]) was 3030 nM, the TGI (NCI-H322M [19]) was 11500 nM and the CC50 (LOX IMVI [20]) was greater than 100000 nM. For the same molecule, the EC50 (IGROV-1 [21]) was 180 nM, the CC50 (DU-145 [22]) was 35000 nM and the GI50 (MDA-N [23]) was 350 nM. For the same molecule, the TGI (SNB-75) was 2630 nM, the CC50 (KM12) was 7380 nM and the EC50 (SNB-19 [24]) was 210 nM. For the same molecule, the CC50 (SNB-19 [25]) was 56200 nM, the EC50 (DU-145 [26]) was 1290 nM and the EC50 (RPMI-8226 [27]) was 30 nM. For the same molecule, the TGI (NCI-H522 [28]) was 2950 nM, the CC50 (OVCAR-8) was 55200 nM and the CC50 (K562 [29]) was greater than 100000 nM. It also gave a TGI (Malme-3M [30]) of 7350 nM, an EC50 (M14 [31]) of 600 nM and a CC50 (MDA-MB-453) of 6020 nM. The CC50 (NCI-H322M [32]) was 35300 nM, the CC50 (PC-3 [33]) was 23300 nM and the GI50 (IGROV-1 [34]) was 180 nM. The EC50 (CAKI-1) was 370 nM and the CC50 (RXF 393 [35]) was 9430 nM.
